Measured values reported in patent publication US20090105270A1, “Kinase inhibition and anticancer therapy” (priority 2007, published 2009).

Key:
EphA2(h) = EphA2(h) (Homo sapiens, UniProt P29317); test: Upstate kinase activity inhibition assay EphA2(h); settings: 40 min, read-out: percentage of enzyme activity that remains
Pyk2(h) = target: T1, Pyk2(h) (Homo sapiens, UniProt Q14289); test: Upstate kinase activity inhibition assay Pyk2(h); format: biochemical; settings: 40 min; read-out: percentage of enzyme activity that remains
T1 construct: purchased Upstate (KinaseProfiler service)

Met(h) = Met(h) (Homo sapiens, UniProt P08581); test: Upstate kinase activity inhibition assay Met(h)
SGK2(h) = SGK2(h) (Homo sapiens, UniProt Q9HBY8); test: Upstate kinase activity inhibition assay SGK2(h); settings: 40 min, read-out: percentage of enzyme activity that remains
MRCKα(h) = MRCKα(h) (Homo sapiens, UniProt Q5VT25); test: Upstate kinase activity inhibition assay MRCKα(h); settings: 40 min, read-out: percentage of enzyme activity that remains
CDK6/cyclinD3(h) = target: T2, CDK6/cyclinD3(h) (Homo sapiens, UniProt Q00534); test: Upstate kinase activity inhibition assay CDK6/cyclinD3(h); format: biochemical; settings: 40 min; read-out: percentage of enzyme activity that remains
T2 construct: purchased Upstate (KinaseProfiler service)

PTK5(h) = target: T3, PTK5(h) (Homo sapiens, UniProt P42685); test: Upstate kinase activity inhibition assay PTK5(h); format: biochemical; settings: 40 min; read-out: percentage of enzyme activity that remains
T3 construct: purchased Upstate (KinaseProfiler service)

MELK(h) = MELK(h) (Homo sapiens, UniProt Q14680); test: Upstate kinase activity inhibition assay MELK(h); settings: 40 min, read-out: percentage of enzyme activity that remains
ZIPK(h) = ZIPK(h) (Homo sapiens, UniProt O43293); test: Upstate kinase activity inhibition assay ZIPK(h); settings: 40 min, read-out: percentage of enzyme activity that remains
EphA1(h) = EphA1(h) (Homo sapiens, UniProt P21709); test: Upstate kinase activity inhibition assay EphA1(h); settings: 40 min, read-out: percentage of enzyme activity that remains
ZAP-70(h) = target: T4, ZAP-70(h) (Homo sapiens, UniProt P43403); test: Upstate kinase activity inhibition assay ZAP-70(h); format: biochemical; settings: 40 min; read-out: percentage of enzyme activity that remains
T4 construct: purchased Upstate (KinaseProfiler service)

PKCβII(h) = target: T5, PKCβII(h) (Homo sapiens, UniProt P05771); test: Upstate kinase activity inhibition assay PKCβII(h); format: biochemical; settings: 40 min; read-out: percentage of enzyme activity that remains
T5 construct: purchased Upstate (KinaseProfiler service)

PKCγ(h) = target: T6, PKCγ(h) (Homo sapiens, UniProt P05129); test: Upstate kinase activity inhibition assay PKCγ(h); format: biochemical; settings: 40 min; read-out: percentage of enzyme activity that remains
T6 construct: purchased Upstate (KinaseProfiler service)

Rsk1(h) = target: T7, Rsk1(h) (Homo sapiens, UniProt Q15418); test: Upstate kinase activity inhibition assay Rsk1(h); format: biochemical; settings: 40 min; read-out: percentage of enzyme activity that remains
T7 construct: purchased Upstate (KinaseProfiler service)

MAPK1(h) = MAPK1(h) (Homo sapiens, UniProt P27361); test: Upstate kinase activity inhibition assay MAPK1(h); settings: 40 min, read-out: percentage of enzyme activity that remains
SRPK2(h) = SRPK2(h) (Homo sapiens, UniProt P78362); test: Upstate kinase activity inhibition assay SRPK2(h); settings: 40 min, read-out: percentage of enzyme activity that remains
Mnk2(h) = target: T8, Mnk2(h) (Homo sapiens, UniProt Q9HBH9); test: Upstate kinase activity inhibition assay Mnk2(h); format: biochemical; settings: 40 min; read-out: percentage of enzyme activity that remains
T8 construct: purchased Upstate (KinaseProfiler service)

IRAK1(h) = IRAK1(h) (Homo sapiens, UniProt P51617); test: Upstate kinase activity inhibition assay IRAK1(h); settings: 40 min, read-out: percentage of enzyme activity that remains
MST2(h) = MST2(h) (Homo sapiens, UniProt Q13188); test: Upstate kinase activity inhibition assay MST2(h); settings: 40 min, read-out: percentage of enzyme activity that remains
BRK(h) = BRK(h) (Homo sapiens, UniProt Q13882); test: Upstate kinase activity inhibition assay BRK(h); settings: 40 min, read-out: percentage of enzyme activity that remains
CaMKIV(h) = CaMKIV(h) (Homo sapiens, UniProt Q16566); test: Upstate kinase activity inhibition assay CaMKIV(h); settings: 40 min, read-out: percentage of enzyme activity that remains
CSK(h) = target: T9, CSK(h) (Homo sapiens, UniProt P41240); test: Upstate kinase activity inhibition assay CSK(h); format: biochemical
T9 construct: purchased Upstate (KinaseProfiler service)

MINK(h) = target: T10, MINK(h) (Homo sapiens, UniProt Q8N4C8); test: Upstate kinase activity inhibition assay MINK(h); format: biochemical; settings: 40 min; read-out: percentage of enzyme activity that remains
T10 construct: purchased Upstate (KinaseProfiler service)

EphA8(h) = target: T11, EphA8(h) (Homo sapiens, UniProt P29322); test: Upstate kinase activity inhibition assay EphA8(h); format: biochemical; settings: 40 min; read-out: percentage of enzyme activity that remains
T11 construct: purchased Upstate (KinaseProfiler service)

PKBγ(h) = target: T12, PKBγ(h) (Homo sapiens, UniProt Q9Y243); test: Upstate kinase activity inhibition assay PKBγ(h); format: biochemical; settings: 40 min; read-out: percentage of enzyme activity that remains
T12 construct: purchased Upstate (KinaseProfiler service)

Yes(h) = Yes(h) (Homo sapiens, UniProt P07947); test: Upstate kinase activity inhibition assay Yes(h); settings: 40 min, read-out: percentage of enzyme activity that remains
EphA4(h) = EphA4(h) (Homo sapiens, UniProt P54764); test: Upstate kinase activity inhibition assay EphA4(h); settings: 40 min, read-out: percentage of enzyme activity that remains
BrSK2(h) = target: T13, BrSK2(h) (Homo sapiens, UniProt Q8IWQ3); test: Upstate kinase activity inhibition assay BrSK2(h); format: biochemical; settings: 40 min; read-out: percentage of enzyme activity that remains
T13 construct: purchased Upstate (KinaseProfiler service)

Ros(h) = target: T14, Ros(h) (Homo sapiens, UniProt P08922); test: Upstate kinase activity inhibition assay Ros(h); format: biochemical; settings: 40 min; read-out: percentage of enzyme activity that remains
T14 construct: purchased Upstate (KinaseProfiler service)

cSRC(h) = cSRC(h) (Homo sapiens, UniProt P12931); test: Upstate kinase activity inhibition assay cSRC(h); format: biochemical; settings: 40 min; read-out: percentage of enzyme activity that remains

Chain of MRCKα(h) (Q5VT25 whole entry): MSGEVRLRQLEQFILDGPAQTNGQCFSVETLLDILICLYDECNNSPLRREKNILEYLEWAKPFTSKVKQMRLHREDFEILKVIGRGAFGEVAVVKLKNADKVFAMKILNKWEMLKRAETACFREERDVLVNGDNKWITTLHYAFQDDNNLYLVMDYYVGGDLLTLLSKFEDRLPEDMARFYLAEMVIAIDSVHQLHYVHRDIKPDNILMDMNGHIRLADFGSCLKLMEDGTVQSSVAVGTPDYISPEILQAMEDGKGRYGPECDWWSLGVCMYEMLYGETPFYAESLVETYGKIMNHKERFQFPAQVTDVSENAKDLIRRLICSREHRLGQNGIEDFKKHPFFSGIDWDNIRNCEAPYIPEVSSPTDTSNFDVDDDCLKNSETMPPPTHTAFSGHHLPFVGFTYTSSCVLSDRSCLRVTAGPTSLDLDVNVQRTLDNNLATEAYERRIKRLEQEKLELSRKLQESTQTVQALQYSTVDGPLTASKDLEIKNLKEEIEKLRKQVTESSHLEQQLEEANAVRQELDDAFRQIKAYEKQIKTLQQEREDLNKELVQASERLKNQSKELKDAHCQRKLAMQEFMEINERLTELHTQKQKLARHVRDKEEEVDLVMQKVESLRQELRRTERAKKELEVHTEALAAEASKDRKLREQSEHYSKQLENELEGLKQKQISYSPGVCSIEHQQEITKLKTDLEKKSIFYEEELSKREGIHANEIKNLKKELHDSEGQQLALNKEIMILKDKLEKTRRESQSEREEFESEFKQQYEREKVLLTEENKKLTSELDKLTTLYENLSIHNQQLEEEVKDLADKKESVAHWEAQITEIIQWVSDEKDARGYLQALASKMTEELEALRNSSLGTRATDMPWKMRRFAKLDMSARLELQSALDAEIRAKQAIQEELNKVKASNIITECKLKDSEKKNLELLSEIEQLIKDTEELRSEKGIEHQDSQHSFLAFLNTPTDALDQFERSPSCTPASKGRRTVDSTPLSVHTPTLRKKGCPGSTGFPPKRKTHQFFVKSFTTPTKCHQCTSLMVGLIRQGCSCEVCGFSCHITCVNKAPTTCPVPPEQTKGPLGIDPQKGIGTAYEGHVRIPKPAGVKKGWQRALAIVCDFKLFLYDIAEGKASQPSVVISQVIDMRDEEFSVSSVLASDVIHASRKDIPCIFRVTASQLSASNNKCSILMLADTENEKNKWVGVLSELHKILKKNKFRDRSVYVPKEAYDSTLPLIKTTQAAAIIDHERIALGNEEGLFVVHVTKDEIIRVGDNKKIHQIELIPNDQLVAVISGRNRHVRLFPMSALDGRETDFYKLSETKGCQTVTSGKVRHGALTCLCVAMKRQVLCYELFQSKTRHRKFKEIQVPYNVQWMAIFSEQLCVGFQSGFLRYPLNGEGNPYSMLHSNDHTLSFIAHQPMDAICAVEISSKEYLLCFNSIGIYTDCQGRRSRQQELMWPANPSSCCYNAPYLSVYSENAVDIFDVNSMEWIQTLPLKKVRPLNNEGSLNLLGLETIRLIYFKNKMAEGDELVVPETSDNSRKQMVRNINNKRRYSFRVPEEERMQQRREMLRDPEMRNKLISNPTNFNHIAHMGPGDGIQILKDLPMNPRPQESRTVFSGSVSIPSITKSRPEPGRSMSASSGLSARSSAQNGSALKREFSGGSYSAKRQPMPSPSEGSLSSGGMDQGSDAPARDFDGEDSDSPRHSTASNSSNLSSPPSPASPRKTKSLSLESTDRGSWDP
Chain of SGK2(h) (Q9HBY8 whole entry): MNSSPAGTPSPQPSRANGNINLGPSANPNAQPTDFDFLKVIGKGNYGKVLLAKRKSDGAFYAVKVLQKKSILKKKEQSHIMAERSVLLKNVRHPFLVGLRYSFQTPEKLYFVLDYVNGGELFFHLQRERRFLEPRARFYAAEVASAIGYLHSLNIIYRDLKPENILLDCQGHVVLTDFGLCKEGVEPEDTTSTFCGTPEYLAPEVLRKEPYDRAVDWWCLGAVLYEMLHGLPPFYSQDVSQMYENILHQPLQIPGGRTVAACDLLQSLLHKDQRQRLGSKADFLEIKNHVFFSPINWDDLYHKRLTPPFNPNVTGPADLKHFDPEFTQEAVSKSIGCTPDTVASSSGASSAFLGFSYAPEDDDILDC
Chain of EphA1(h) (P21709 26-976): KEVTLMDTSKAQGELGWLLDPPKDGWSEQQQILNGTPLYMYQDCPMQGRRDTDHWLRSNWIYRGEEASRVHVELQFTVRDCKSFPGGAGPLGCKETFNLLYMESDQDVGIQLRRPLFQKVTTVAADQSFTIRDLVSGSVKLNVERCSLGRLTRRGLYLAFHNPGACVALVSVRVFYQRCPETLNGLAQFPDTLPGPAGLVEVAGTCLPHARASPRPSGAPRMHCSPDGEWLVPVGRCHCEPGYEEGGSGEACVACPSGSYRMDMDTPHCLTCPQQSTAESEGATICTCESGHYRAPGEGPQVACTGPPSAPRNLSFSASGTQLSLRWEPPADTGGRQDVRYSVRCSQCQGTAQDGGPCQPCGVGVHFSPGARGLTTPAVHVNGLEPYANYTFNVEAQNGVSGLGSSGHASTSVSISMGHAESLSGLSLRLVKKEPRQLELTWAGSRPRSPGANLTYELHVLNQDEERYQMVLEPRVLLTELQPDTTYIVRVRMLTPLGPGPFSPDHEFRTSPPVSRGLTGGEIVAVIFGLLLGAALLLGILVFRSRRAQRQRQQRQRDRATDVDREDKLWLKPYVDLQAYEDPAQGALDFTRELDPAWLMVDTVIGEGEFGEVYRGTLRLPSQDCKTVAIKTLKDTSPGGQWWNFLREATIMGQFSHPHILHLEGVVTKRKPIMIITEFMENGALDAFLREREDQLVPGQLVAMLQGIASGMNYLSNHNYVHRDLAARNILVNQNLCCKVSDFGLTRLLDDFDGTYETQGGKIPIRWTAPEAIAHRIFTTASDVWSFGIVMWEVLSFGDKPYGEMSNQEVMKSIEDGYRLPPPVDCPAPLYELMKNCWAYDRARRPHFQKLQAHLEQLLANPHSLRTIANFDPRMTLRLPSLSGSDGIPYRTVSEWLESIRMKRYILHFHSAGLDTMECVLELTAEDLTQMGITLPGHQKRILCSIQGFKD
T3 sequence (P42685 whole entry): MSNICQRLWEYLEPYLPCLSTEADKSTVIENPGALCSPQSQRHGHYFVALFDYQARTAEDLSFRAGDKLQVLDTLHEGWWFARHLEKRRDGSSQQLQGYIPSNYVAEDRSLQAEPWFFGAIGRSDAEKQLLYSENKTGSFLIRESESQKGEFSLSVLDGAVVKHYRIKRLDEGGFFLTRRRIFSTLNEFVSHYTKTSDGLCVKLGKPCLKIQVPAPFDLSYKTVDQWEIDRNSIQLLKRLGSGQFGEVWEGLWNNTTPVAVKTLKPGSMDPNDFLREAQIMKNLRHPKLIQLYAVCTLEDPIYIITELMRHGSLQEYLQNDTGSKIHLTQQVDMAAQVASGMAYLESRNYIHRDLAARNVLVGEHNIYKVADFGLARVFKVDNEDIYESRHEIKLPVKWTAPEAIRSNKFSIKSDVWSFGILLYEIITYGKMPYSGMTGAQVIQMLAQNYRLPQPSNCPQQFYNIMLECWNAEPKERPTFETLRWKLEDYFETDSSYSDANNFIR
Chain of MAPK1(h) (P27361 whole entry): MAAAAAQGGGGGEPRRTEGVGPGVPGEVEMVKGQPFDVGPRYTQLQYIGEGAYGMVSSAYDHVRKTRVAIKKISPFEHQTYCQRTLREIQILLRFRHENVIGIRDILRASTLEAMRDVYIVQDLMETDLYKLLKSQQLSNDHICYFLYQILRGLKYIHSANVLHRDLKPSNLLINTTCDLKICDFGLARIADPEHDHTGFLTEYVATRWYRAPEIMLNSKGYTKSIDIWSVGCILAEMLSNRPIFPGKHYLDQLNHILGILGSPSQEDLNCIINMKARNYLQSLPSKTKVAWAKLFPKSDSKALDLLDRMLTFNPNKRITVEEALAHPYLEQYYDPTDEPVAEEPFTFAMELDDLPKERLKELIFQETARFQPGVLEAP

Cc1cc(Nc2cc(N3CCN(C)CC3)nc(Sc3ccc(NC(=O)C4CC4)cc3)n2)n[nH]1 [Compound E, Cyclopropane carboxylic acid {4-[4-(4-methyl-piperazin-1-yl)-6-(5-methyl-2H-pyrazol-3-ylamino)-pyrimidin-2-ylsulphanyl]-phenyl}-amide]
remaining activity at 0.2 µM (EphA2(h)): 78%
remaining activity at 4 µM (EphA2(h)): 10%
remaining activity at 0.2 µM (Pyk2(h)): 100%
remaining activity at 4 µM (Pyk2(h)): 59%
percentage of enzyme activity that remains (Met(h); 0.2 μM Compound E): 105%
percentage of enzyme activity that remains (Met(h); 4 μM Compound E): 50%
remaining activity at 0.2 µM (SGK2(h)): 102%
remaining activity at 4 µM (SGK2(h)): 102%
remaining activity at 0.2 µM (MRCKα(h)): 96%
remaining activity at 4 µM (MRCKα(h)): 99%
remaining activity at 0.2 µM (CDK6/cyclinD3(h)): 103%
remaining activity at 4 µM (CDK6/cyclinD3(h)): 97%
remaining activity at 0.2 µM (PTK5(h)): 97%
remaining activity at 4 µM (PTK5(h)): 54%
remaining activity at 0.2 µM (MELK(h)): 56%
remaining activity at 4 µM (MELK(h)): 13%
remaining activity at 0.2 µM (ZIPK(h)): 100%
remaining activity at 0.2 µM (EphA1(h)): 93%
remaining activity at 4 µM (EphA1(h)): 27%
remaining activity at 0.2 µM (ZAP-70(h)): 75%
remaining activity at 4 µM (ZAP-70(h)): 64%
remaining activity at 0.2 µM (PKCβII(h)): 99%
remaining activity at 4 µM (PKCβII(h)): 94%
remaining activity at 0.2 µM (PKCγ(h)): 96%
remaining activity at 4 µM (PKCγ(h)): 82%
remaining activity at 4 µM (Rsk1(h)): 89%
remaining activity at 0.2 µM (MAPK1(h)): 94%
remaining activity at 4 µM (MAPK1(h)): 93%
remaining activity at 0.2 µM (SRPK2(h)): 122%
remaining activity at 4 µM (SRPK2(h)): 109%
remaining activity at 4 µM (Mnk2(h)): 96%
remaining activity at 0.2 µM (IRAK1(h)): 107%
remaining activity at 4 µM (IRAK1(h)): 108%
remaining activity at 0.2 µM (MST2(h)): 92%
remaining activity at 4 µM (MST2(h)): 74%
remaining activity at 0.2 µM (BRK(h)): 102%
remaining activity at 4 µM (BRK(h)): 83%
remaining activity at 0.2 µM (CaMKIV(h)): 100%
remaining activity at 4 µM (CaMKIV(h)): 99%
percentage of enzyme activity that remains (CSK(h); 0.2 μM Compound E): 108%
percentage of enzyme activity that remains (CSK(h); 4 μM Compound E): 87%
remaining activity at 0.2 µM (MINK(h)): 103%
remaining activity at 4 µM (MINK(h)): 82%
remaining activity at 0.2 µM (EphA8(h)): 92%
remaining activity at 0.2 µM (PKBγ(h)): 89%
remaining activity at 4 µM (PKBγ(h)): 83%
remaining activity at 0.2 µM (Yes(h)): 39%
remaining activity at 4 µM (Yes(h)): 2%
remaining activity at 0.2 µM (EphA4(h)): 103%
remaining activity at 4 µM (EphA4(h)): 61%
remaining activity at 0.2 µM (BrSK2(h)): 102%
remaining activity at 4 µM (BrSK2(h)): 96%
remaining activity at 4 µM (Ros(h)): 80%
remaining activity at 0.2 µM (cSRC(h)): 87%
remaining activity at 4 µM (cSRC(h)): 25%
